Assay results as given in patent US20220395497A1, “Cancer Treatment Using Camptothecin Derivatives” (priority 2019, published 2022).

Test system: adults with recurrence of glioblastoma multiforme (GBM)
Assay: Phase 2 open-label study of IV AR-67 (7.5 mg/m2 once daily for 5 days, 21-day cycle) in recurrent GBM: tumor response (MRI, MacDonald criteria), PFS, disposition. Cohort 1 = not received or not recently failed (>90 days) bevacizumab; Cohort 2 = recently (<90 days) failed bevacizumab
Format: in vivo, human
Experimental: The primary objective in the rapid bevacizumab failure group (<90 days) was to determine the 2-month PFS.
This solution was reconstituted in dextrose 5% in water to a final concentration between 0.06-0.6 mg/mL Drug (7.5 mg/m2) was to be given until the onset of toxicity requiring discontinuation or tumor progression. Tumor response was assessed=14d after every second cycle and before every third cycle using MRI.

Structure (SMILES): CC[C@@]1(O)C(=O)OCc2c1cc1n(c2=O)Cc2c-1nc1ccc(O)cc1c2[Si](C)(C)C(C)(C)C [AR-67, (205)-7-tert-butyldimethysilyl-10-hydroxycamptothecin]
- Best Overall Response: Complete Response, patients (All Patients, N = 46): 0
- Best Overall Response: Progressive Disease, patients (All Patients, N = 46): 31
- Response at Study Completion or Discontinuation: Complete Response, patients (All Patients, N = 46): 0
- Response at Study Completion or Discontinuation: Progressive Disease, patients (All Patients, N = 46): 39
- Response at Study Completion or Discontinuation: Stable Disease, patients (All Patients, N = 46): 2
- Withdrawal due to Adverse event, patients (%) (All Patients, N = 46): 2.2%
- Withdrawal due to Death, patients (%) (All Patients, N = 46): 6.5%
- Withdrawal due to Disease progression, patients (%) (All Patients, N = 46): 69.6%
- Best Overall Response: Complete Response, patients (Cohort 1, N = 31): 0
- Best Overall Response: Partial Response, patients (Cohort 1, N = 31): 3
- Best Overall Response: Progressive Disease, patients (Cohort 1, N = 31): 20
- Best Overall Response: Stable Disease, patients (Cohort 1, N = 31): 5
- Response at Study Completion or Discontinuation: Complete Response, patients (Cohort 1, N = 31): 0
- Response at Study Completion or Discontinuation: Partial Response, patients (Cohort 1, N = 31): 1
- Response at Study Completion or Discontinuation: Progressive Disease, patients (Cohort 1, N = 31): 28
- Response at Study Completion or Discontinuation: Stable Disease, patients (Cohort 1, N = 31): 0
- Withdrawal due to Death, patients (%) (Cohort 1, N = 31): 6.5%
- Withdrawal due to Disease progression, patients (%) (Cohort 1, N = 31): 77.4%
- Best Overall Response: Complete Response, patients (Cohort 2, N = 13): 0
- Best Overall Response: Partial Response, patients (Cohort 2, N = 13): 0
- Best Overall Response: Progressive Disease, patients (Cohort 2, N = 13): 10
- Response at Study Completion or Discontinuation: Complete Response, patients (Cohort 2, N = 13): 0
- Response at Study Completion or Discontinuation: Partial Response, patients (Cohort 2, N = 13): 0
- Response at Study Completion or Discontinuation: Progressive Disease, patients (Cohort 2, N = 13): 10
- Response at Study Completion or Discontinuation: Stable Disease, patients (Cohort 2, N = 13): 2
- Withdrawal due to Adverse event, patients (%) (Cohort 2, N = 13): 7.7%
- Withdrawal due to Death, patients (%) (Cohort 2, N = 13): 7.7%
- Withdrawal due to Disease progression, patients (%) (Cohort 2, N = 13): 53.8%
- efficacy, reason for study termination (in vivo): lack of efficacy
- outcome (rGBM patients who failed bevacizumab within 90 days of last dose): fared poorly
- patients who surpassed the PFS6 endpoint (rGBM patients who had never taken bevacizumab, or had not failed bev treatment within 90 days of last dose): 20%
